Measurements: the supplement of paper PMC10307832

Assays:
Test in all cases: relative viability (nuclei count vs DMSO), 5 days (fraction); higher = more cells survive
Motesanib + Tozasertib = compound: CC1(C)CNc2cc(NC(=O)c3cccnc3NCc3ccncc3)ccc21 [Motesanib] + Cc1cc(Nc2cc(N3CCN(C)CC3)nc(Sc3ccc(NC(=O)C4CC4)cc3)n2)n[nH]1 [Tozasertib] (partner 0.1 µM)
Summary of the method: (§1)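 Nuclei were stained with Hoechst during a one-step fixation (final 0.05% Triton X-100, 1% formaldehyde, 1 ug/ml Hoechst) carried out 5 days after dosing, then counted on 4× images. The cells, lung cancer lines in 1536-well plates, had been dosed by pin tool the day after seeding with one drug alone or a fixed anchor-drug dose plus five library-drug doses (not always all listed) in √10 steps. Relative viability is the nuclei count in treated wells divided by that in vehicle wells, and each value is the median of duplicate plates.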

Motesanib + Phenformin = compound: CC1(C)CNc2cc(NC(=O)c3cccnc3NCc3ccncc3)ccc21 [Motesanib] + N=C(N)NC(=N)NCCc1ccccc1 [Phenformin] (partner 250 µM)
Summary of the method: as §1

[1] = compound: C[C@@]1(C(=O)Nc2ccc(F)nc2)CCCN1c1nc(Nc2cc(C3CC3)n[nH]2)c2cccn2n1 + CC(C)C[C@H](NC(=O)[C@H](Cc1ccccc1)NC(=O)c1cnccn1)B(O)O [Bortezomib] (partner 0.002 µM)
Summary of the method: as §1

[2] = compound: C[C@@]1(C(=O)Nc2ccc(F)nc2)CCCN1c1nc(Nc2cc(C3CC3)n[nH]2)c2cccn2n1 + CS(=O)(=O)CCNCc1ccc(-c2ccc3ncnc(Nc4ccc(OCc5cccc(F)c5)c(Cl)c4)c3c2)o1 [Lapatinib] (partner 2 µM)
Summary of the method: as §1

Cell Line | relative viability (Motesanib + Tozasertib; first compound 0.01 µM) | relative viability (Motesanib + Tozasertib; first compound 0.03162 µM) | relative viability (Motesanib + Tozasertib; first compound 0.1 µM) | relative viability (Motesanib + Tozasertib; first compound 0.3162 µM) | relative viability (Motesanib + Tozasertib; first compound 1 µM) | relative viability (Motesanib + Phenformin; first compound 0.01 µM) | relative viability (Motesanib + Phenformin; first compound 0.03162 µM) | relative viability (Motesanib + Phenformin; first compound 0.1 µM) | relative viability (Motesanib + Phenformin; first compound 0.3162 µM) | relative viability (Motesanib + Phenformin; first compound 1 µM) | relative viability ([1]; first compound 0.04 µM) | relative viability ([1]; first compound 0.1265 µM) | relative viability ([1]; first compound 0.4 µM) | relative viability ([1]; first compound 1.265 µM) | relative viability ([2]; first compound 0.04 µM) | relative viability ([2]; first compound 0.1265 µM) | relative viability ([2]; first compound 0.4 µM) | relative viability ([2]; first compound 1.265 µM)
NCI-H3122 | 0.301 | 0.369 | 0.409 | 0.475 | 0.452 | 0.351 | 0.338 | 0.409 | 0.427 | 0.375 | 0.993 | 1.03 | 1.04 | 0.944 | 0.94 | 1.03 | 0.958 | 1.03
PC-3 [JPC-3] | 0.855 | 0.931 | 0.884 | 0.864 | 0.85 | 0.482 | 0.478 | 0.458 | 0.512 | 0.507 | 0.831 | 0.819 | 0.788 | 0.874 | 0.457 | 0.403 | 0.382 | 0.398
PC-14 | 0.563 | 0.657 | 0.518 | 0.618 | 0.617 | 0.471 | 0.53 | 0.663 | 0.604 | 0.586 | 0.846 | 0.715 | 0.674 | 0.799 | 0.329 | 0.282 | 0.264 | 0.271
RERF-LC-KJ | 0.536 | 0.478 | 0.527 | 0.501 | 0.505 | 0.462 | 0.389 | 0.407 | 0.373 | 0.467 | 0.919 | 0.872 | 0.907 | 0.878 | 0.793 | 0.715 | 0.692 | 0.696
SK-LU-1 | 0.325 | 0.298 | 0.352 | 0.327 | 0.263 | 0.489 | 0.5 | 0.539 | 0.569 | 0.591 | 1.06 | 1.03 | 0.93 | 0.884 | 0.821 | 0.861 | 0.598 | 0.577
SW 1573 | 0.144 | 0.145 | 0.187 | 0.222 | 0.177 | 0.468 | 0.343 | 0.388 | 0.36 | 0.421 | 0.894 | 0.611 | 0.7 | 0.716 | 1.04 | 0.902 | 0.729 | 1
